Data: PMC6332596 (Journal of Hematology & Oncology, 2019)
Where two headings read alike, the source gives them in different places.

[1] = Grade 4, worst grade per patient in all cycles, N = 18
[2] = Grade 5, worst grade per patient in all cycles, N = 18

Protocol: Patients were enrolled sequentially into dose escalation cohorts using a standard 3 + 3 design, except that only two patients were enrolled at the starting dose. Intra-patient dose escalation was not permitted.
If one of the first three patients at a dose level experienced DLT, up to three additional patients (total up to six patients) were enrolled at that dose level. If more than two patients at a dose level experienced DLT, dose escalation was halted, and the dose level was determined to have exceeded MTD. Three additional patients were then entered on the next lower dose level. MTD was defined as the highest dose with an observed incidence of DLT in no more than one of six patients.
Toxicity was graded according to Common Terminology Criteria for Adverse Events (CTCAE) version 4.0.
Safety assessments included the reporting of all adverse events (AEs), changes in clinical laboratory parameters (hematology, serum chemistries, coagulation, urinalysis), vital sign measurements, 12-lead electrocardiogram (ECG) results, and physical examination findings. In addition, serial measurements of left ventricular ejection fraction, thyroid function, myocardial enzymes, troponin, amylase, and lipase were performed. Twenty-four-hour urine protein was implemented if clinically indicated.
Safety parameters were assessed at baseline and at regular intervals during the study. Adverse events (AEs) were classified/graded weekly according to the CTCAE version 4.0.

COc1ccc2c(Oc3ccc4c(C(=O)Nc5ccccc5N)cccc4c3)ccnc2c1 [chiauranib]
Treatment-related adverse event: Blood urea increased [1]: 0 n (%)
Treatment-related adverse event: Conjugated bilirubin increased [1]: 0 n (%)
Treatment-related adverse event: Decreased appetite [1]: 0 n (%)
Treatment-related adverse event: Diarrhea [1]: 0 n (%)
Treatment-related adverse event: Dysphonia [1]: 0 n (%)
Treatment-related adverse event: Fatigue [1]: 0 n (%)
Treatment-related adverse event: Hematuria [1]: 0 n (%)
Treatment-related adverse event: Hyperbilirubinemia [1]: 0 n (%)
Treatment-related adverse event: Hypertension [1]: 0 n (%)
Treatment-related adverse event: Hypertriglyceridemia [1]: 0 n (%)
Treatment-related adverse event: Hypothyroidism [1]: 0 n (%)
Treatment-related adverse event: Leucopenia [1]: 0 n (%)
Treatment-related adverse event: Mouth ulceration [1]: 0 n (%)
Treatment-related adverse event: Nausea [1]: 0 n (%)
Treatment-related adverse event: Neutropenia [1]: 0 n (%)
Treatment-related adverse event: Palmar-plantar erythrodysesthesia syndrome [1]: 0 n (%)
Treatment-related adverse event: Proteinuria [1]: 0 n (%)
Treatment-related adverse event: Rash [1]: 0 n (%)
Treatment-related adverse event: Thrombocytopenia [1]: 0 n (%)
Treatment-related adverse event: Unconjugated bilirubin increased [1]: 0 n (%)
Treatment-related adverse event: Vaginal hemorrhage [1]: 0 n (%)
Treatment-related adverse event: ALT increased [2]: 0 n (%)
Treatment-related adverse event: AST increased [2]: 0 n (%)
Treatment-related adverse event: Abdominal pain [2]: 0 n (%)
Treatment-related adverse event: Amylase increased [2]: 0 n (%)
Treatment-related adverse event: Blood urea increased [2]: 0 n (%)
Treatment-related adverse event: Conjugated bilirubin increased [2]: 0 n (%)
Treatment-related adverse event: Decreased appetite [2]: 0 n (%)
Treatment-related adverse event: Diarrhea [2]: 0 n (%)
Treatment-related adverse event: Dysphonia [2]: 0 n (%)
Treatment-related adverse event: Fatigue [2]: 0 n (%)
Treatment-related adverse event: Hematuria [2]: 0 n (%)
Treatment-related adverse event: Hyperbilirubinemia [2]: 0 n (%)
Treatment-related adverse event: Hypertension [2]: 0 n (%)
Treatment-related adverse event: Hypertriglyceridemia [2]: 0 n (%)
Treatment-related adverse event: Hypothyroidism [2]: 0 n (%)
Treatment-related adverse event: Leucopenia [2]: 0 n (%)
Treatment-related adverse event: Mouth ulceration [2]: 0 n (%)
Treatment-related adverse event: Nausea [2]: 0 n (%)
Treatment-related adverse event: Neutropenia [2]: 0 n (%)
Treatment-related adverse event: Palmar-plantar erythrodysesthesia syndrome [2]: 0 n (%)
Treatment-related adverse event: Proteinuria [2]: 0 n (%)
Treatment-related adverse event: Rash [2]: 0 n (%)
Treatment-related adverse event: Thrombocytopenia [2]: 0 n (%)
Treatment-related adverse event: Unconjugated bilirubin increased [2]: 0 n (%)
Treatment-related adverse event: Vaginal hemorrhage [2]: 0 n (%)
treatment-related AE exceeding grade 3 (N = 18): No treatment-related AE exceeded grade 3 was observed
treatment-related deaths (N = 18): No treatment-related deaths occurred
treatment-related fatigue, irrespective of grade (N = 18): 61.1%
treatment-related grade 3 hyperglycemia (N = 18): one
treatment-related grade 3 hypertension (N = 18): two
treatment-related grade 3 neutropenia (N = 18): two
treatment-related hematuria, irrespective of grade (N = 18): 38.9%
treatment-related hypertension, irrespective of grade (N = 18): 33.3%
treatment-related hypertriglyceridemia, irrespective of grade (N = 18): 33.3%
treatment-related hypothyroidism, irrespective of grade (N = 18): 38.9%
treatment-related proteinuria, irrespective of grade (N = 18): 44.4%
patients with at least one AE (N = 18, all dose levels): 18 patients
patients with at least one treatment-related AE (N = 18, all dose levels): 94.4%
Treatment-related adverse event: ALT increased (Total, all cycles, N = 18): 2 (11.1) n (%)
Treatment-related adverse event: AST increased (Total, all cycles, N = 18): 3 (16.7) n (%)
Treatment-related adverse event: Abdominal pain (Total, all cycles, N = 18): 2 (11.1) n (%)
Treatment-related adverse event: Amylase increased (Total, all cycles, N = 18): 4 (22.2) n (%)
Treatment-related adverse event: Blood urea increased (Total, all cycles, N = 18): 2 (11.1) n (%)
Treatment-related adverse event: Conjugated bilirubin increased (Total, all cycles, N = 18): 5 (27.8) n (%)
Treatment-related adverse event: Decreased appetite (Total, all cycles, N = 18): 2 (11.1) n (%)
Treatment-related adverse event: Diarrhea (Total, all cycles, N = 18): 3 (16.7) n (%)
Treatment-related adverse event: Dysphonia (Total, all cycles, N = 18): 2 (11.1) n (%)
Treatment-related adverse event: Fatigue (Total, all cycles, N = 18): 11 (61.1) n (%)
Treatment-related adverse event: Hematuria (Total, all cycles, N = 18): 7 (38.9) n (%)
Treatment-related adverse event: Hyperbilirubinemia (Total, all cycles, N = 18): 2 (11.1) n (%)
Treatment-related adverse event: Hypertension (Total, all cycles, N = 18): 6 (33.3) n (%)
Treatment-related adverse event: Hypertriglyceridemia (Total, all cycles, N = 18): 6 (33.3) n (%)
Treatment-related adverse event: Hypothyroidism (Total, all cycles, N = 18): 7 (38.9) n (%)
Treatment-related adverse event: Leucopenia (Total, all cycles, N = 18): 3 (16.7) n (%)
Treatment-related adverse event: Mouth ulceration (Total, all cycles, N = 18): 2 (11.1) n (%)
Treatment-related adverse event: Nausea (Total, all cycles, N = 18): 4 (22.2) n (%)
Treatment-related adverse event: Neutropenia (Total, all cycles, N = 18): 4 (22.2) n (%)
Treatment-related adverse event: Palmar-plantar erythrodysesthesia syndrome (Total, all cycles, N = 18): 2 (11.1) n (%)
Treatment-related adverse event: Proteinuria (Total, all cycles, N = 18): 8 (44.4) n (%)
Treatment-related adverse event: Rash (Total, all cycles, N = 18): 2 (11.1) n (%)
Treatment-related adverse event: Thrombocytopenia (Total, all cycles, N = 18): 2 (11.1) n (%)
Treatment-related adverse event: Unconjugated bilirubin increased (Total, all cycles, N = 18): 2 (11.1) n (%)
Treatment-related adverse event: Vaginal hemorrhage (Total, all cycles, N = 18): 2 (11.1) n (%)
MTD (administered orally once daily): 50 mg
recommended phase II dose (RP2D) (administered orally once daily, monotherapy): 50 mg
maximum tolerated dose (MTD) (patients, oral once daily, 28-day cycles): 50 mg/day
